Assay results taken from patent US12239645B2, “Targeted dosing for the treatment of complement mediated disorders” (Achillion Pharmaceuticals, Inc., priority 2018, dated 2025).
Converted amounts (≈) assume the structure as drawn. Read-outs that look alike come from different tables or passages of the source.

Assays:
[1] = Phase I single ascending dose (SAD) study: plasma and urine pharmacokinetics; format: in vivo, human; settings: for Aeu(%), GM / Aeu(%), Mean: percentage of dose
Experimental: A single ascending dose (SAD) study was the first-in-human study of Compound 1. […] Secondary objectives included evaluation of the pharmacokinetic (PK) profile and the relationship between Compound 1 PK and pharmacodynamic (PD) characteristics, that is, the inhibition of complement alternative pathway (AP) activity (PK/PD).
[…] were dosed and evaluated in 4 dose groups with ten subjects receiving placebo (Table 1). The first dose group had 6 active and 6 placebo subjects; subsequent groups had 6 active and 2 placebo subjects each. Each group was followed for 28 days after dosing. All subjects were monitored for safety through the last scheduled visit at Day 28. Blood and urine samples were collected at predefined time points from Days 1 to 4 to determine plasma and urine concentrations of Compound 1 and from Days 1 to 7 to determine complement related activities. Results of serum AP activity measured by AP Wieslab assay as well as plasma Bb, factor D level and several other PD biomarkers were determined.
For the 18 subjects comprising the Groups 1-3 SAD PK population, a total of 306 plasma samples (17 samples from each subject collected pre-dose and 0.5, 1, 1.5, 2, 2.5, 3, 4, 6, 8, 10, 12, 16, 24 [Day 2], 48 [Day 3], 72 [Day 4], and 144 [Day 7] hours post-dose) were available for PK determination in plasma.
Single ascending doses of Compound 1 were evaluated to determine plasma and urine PK parameters over the dose range of 40 mg to 120 mg studied. Summary statistics for plasma and urine Compound 1 concentration at each nominal sampling time point are presented by randomized treatment group in Table 2.

[2] = system: complement alternative pathway (AP) activity; test: MAD study: serum AP activity ex vivo by AP Wieslab assay; format: in vivo, human; settings: for % AUEC0-12 / DURATION0-12: Days 7 and 14 combined analysis
Experimental: Serum AP hemolysis activity was assessed in samples collected from all cohorts at predefined time points from Day 1 (pre-dose) through Day 21. Intense sampling was obtained on Day 1 (0 h to 12 h), Day 7 (0 h to 12 h), and Day 14 (0 h to 16 h); all other serum samples were collected at 0 h (morning PK troughs) on the indicated days. Activity for each cohort is shown for the complete time course Day 1-21 (FIG. 17), Day 1 (FIG. 18), Day 7 (FIG. 19) and Day 14 (FIG. 20). Serum complement AP activity measured ex vivo by the AP Wieslab assay, serum total complement classical pathway (CP) activity, plasma complement Bb concentrations, and serum FD, C3, and C4 concentrations were also measured at predefined time points.

[3] = 40 mg single dose, fasted, plasma
[4] = 40 mg single dose, fasted, urine
[5] = 80 mg single dose, fasted, plasma
[6] = 80 mg single dose, fasted, urine
[7] = 120 mg single dose, fasted, plasma
[8] = 120 mg single dose, fasted, urine
[9] = Homo sapiens, sigmoidal model, multiple-dose cohorts

Maximum mean plasma concentration ([1]; 40 mg single dose): 78.03 ± 19.65 ng/mL
CL/F, GM [1, 3]: 81.26 L/h
CL/F, Mean [1, 3]: 84.27 L/h
t½term, GM [1, 3]: 12.51 h
t½term, Mean [1, 3]: 13.08 h
Aeu, GM [1, 4]: 0.0671 mg
Aeu, Mean [1, 4]: 0.0749 mg
Aeu(%), GM [1, 4]: 0.17%
Aeu(%), Mean [1, 4]: 0.19%
Maximum mean plasma concentration ([1]; 80 mg single dose): 224.05 ± 108.27 ng/mL
CL/F, GM [1, 5]: 63.52 L/h
CL/F, Mean [1, 5]: 70.25 L/h
t½term, GM [1, 5]: 9.80 h
t½term, Mean [1, 5]: 9.92 h
Aeu, GM [1, 6]: 0.2045 mg
Aeu, Mean [1, 6]: 0.3058 mg
Aeu(%), GM [1, 6]: 0.26%
Aeu(%), Mean [1, 6]: 0.38%
Maximum mean plasma concentration ([1]; 120 mg single dose): 282.83 ± 89.15 ng/mL
CL/F, GM [1, 7]: 71.87 L/h
CL/F, Mean [1, 7]: 73.25 L/h
t½term, GM [1, 7]: 12.67 h
t½term, Mean [1, 7]: 13.90 h
Aeu, GM [1, 8]: 0.2683 mg
Aeu, Mean [1, 8]: 0.2913 mg
Aeu(%), GM [1, 8]: 0.22%
Aeu(%), Mean [1, 8]: 0.24%
last post-dose time point with detected plasma concentration ([1]; all SAD dose groups): 72 h
CL renal ([1]; human, plasma and urine, oral, 40 mg to 120 mg single dose, read-out: Renal clearance, geometric mean, range over dose groups): 2.67 to 3.17 mL/min
AUC(0-inf) ([1]; human, plasma, oral, 40 mg, 40 mg single dose, fasted, plasma, read-out: AUC0-inf, GM): 492 ng·h/mL
AUC(0-inf) ([1]; human, plasma, oral, 40 mg, 40 mg single dose, fasted, plasma, read-out: AUC0-inf, Mean): 514 ng·h/mL
Cmax ([1]; human, plasma, oral, 40 mg, 40 mg single dose, fasted, plasma, read-out: Cmax, GM): 85.3 ng/mL
Cmax ([1]; human, plasma, oral, 40 mg, 40 mg single dose, fasted, plasma, read-out: Cmax, Mean): 88.6 ng/mL
Cmax ([1]; human, plasma, oral, 40 mg, 40 mg single dose, fasted, plasma, read-out: Cmax, Median): 79.1 ng/mL
Vd/F ([1]; human, plasma, oral, 40 mg, 40 mg single dose, fasted, plasma, read-out: Vz/F, GM): 1470 L
Vd/F ([1]; human, plasma, oral, 40 mg, 40 mg single dose, fasted, plasma, read-out: Vz/F, Mean): 1500 L
Tmax ([1]; human, plasma, oral, 40 mg, 40 mg single dose, fasted, plasma, read-out: tmax, GM): 1.65 h
Tmax ([1]; human, plasma, oral, 40 mg, 40 mg single dose, fasted, plasma, read-out: tmax, Mean): 1.75 h
Tmax ([1]; human, plasma, oral, 40 mg, 40 mg single dose, fasted, plasma, read-out: tmax, Median): 1.5 h
AUC(0-inf) ([1]; human, plasma, oral, 80 mg, 80 mg single dose, fasted, plasma, read-out: AUC0-inf, GM): 1260 ng·h/mL
AUC(0-inf) ([1]; human, plasma, oral, 80 mg, 80 mg single dose, fasted, plasma, read-out: AUC0-inf, Mean): 1390 ng·h/mL
Cmax ([1]; human, plasma, oral, 80 mg, 80 mg single dose, fasted, plasma, read-out: Cmax, GM): 232 ng/mL
Cmax ([1]; human, plasma, oral, 80 mg, 80 mg single dose, fasted, plasma, read-out: Cmax, Mean): 253 ng/mL
Cmax ([1]; human, plasma, oral, 80 mg, 80 mg single dose, fasted, plasma, read-out: Cmax, Median): 247 ng/mL
Vd/F ([1]; human, plasma, oral, 80 mg, 80 mg single dose, fasted, plasma, read-out: Vz/F, GM): 899 L
Vd/F ([1]; human, plasma, oral, 80 mg, 80 mg single dose, fasted, plasma, read-out: Vz/F, Mean): 992 L
Tmax ([1]; human, plasma, oral, 80 mg, 80 mg single dose, fasted, plasma, read-out: tmax, GM): 1.85 h
Tmax ([1]; human, plasma, oral, 80 mg, 80 mg single dose, fasted, plasma, read-out: tmax, Mean): 2 h
Tmax ([1]; human, plasma, oral, 80 mg, 80 mg single dose, fasted, plasma, read-out: tmax, Median): 1.75 h
AUC(0-inf) ([1]; human, plasma, oral, 120 mg, 120 mg single dose, fasted, plasma, read-out: AUC0-inf, GM): 1670 ng·h/mL
AUC(0-inf) ([1]; human, plasma, oral, 120 mg, 120 mg single dose, fasted, plasma, read-out: AUC0-inf, Mean): 1710 ng·h/mL
Cmax ([1]; human, plasma, oral, 120 mg, 120 mg single dose, fasted, plasma, read-out: Cmax, GM): 303 ng/mL
Cmax ([1]; human, plasma, oral, 120 mg, 120 mg single dose, fasted, plasma, read-out: Cmax, Mean): 316 ng/mL
Cmax ([1]; human, plasma, oral, 120 mg, 120 mg single dose, fasted, plasma, read-out: Cmax, Median): 260 ng/mL
Vd/F ([1]; human, plasma, oral, 120 mg, 120 mg single dose, fasted, plasma, read-out: Vz/F, GM): 1310 L
Vd/F ([1]; human, plasma, oral, 120 mg, 120 mg single dose, fasted, plasma, read-out: Vz/F, Mean): 1460 L
Tmax ([1]; human, plasma, oral, 120 mg, 120 mg single dose, fasted, plasma, read-out: tmax, GM): 2.54 h
Tmax ([1]; human, plasma, oral, 120 mg, 120 mg single dose, fasted, plasma, read-out: tmax, Mean): 2.58 h
Tmax ([1]; human, plasma, oral, 120 mg, 120 mg single dose, fasted, plasma, read-out: tmax, Median): 2.75 h
half-life ([1]; human, plasma, oral, 40 mg to 120 mg single dose, read-out: Mean terminal elimination half-life (t1/2 term), range over dose groups): 9.92 to 13.9 h
Tmax ([1]; human, plasma, oral, 40 mg to 120 mg single dose, read-out: Median tmax, range over dose groups): 1.5 to 2.75 h
CL renal ([1]; human, urine, oral, 40 mg, 40 mg single dose, fasted, urine, read-out: CLr, GM (converted)): 2.67 mL/min
CL renal ([1]; human, urine, oral, 40 mg, 40 mg single dose, fasted, urine, read-out: CLr, Mean (converted)): 2.67 mL/min
CL renal ([1]; human, urine, oral, 80 mg, 80 mg single dose, fasted, urine, read-out: CLr, GM (converted)): 3 mL/min
CL renal ([1]; human, urine, oral, 80 mg, 80 mg single dose, fasted, urine, read-out: CLr, Mean (converted)): 3.5 mL/min
CL renal ([1]; human, urine, oral, 120 mg, 120 mg single dose, fasted, urine, read-out: CLr, GM (converted)): 3.17 mL/min
CL renal ([1]; human, urine, oral, 120 mg, 120 mg single dose, fasted, urine, read-out: CLr, Mean (converted)): 3.5 mL/min
EC50 ([2]; Homo sapiens, Emax model, multiple-dose cohorts): 0.0143 µg/mL (≈ 0.0237 µM)
EC50 [2, 9]: 0.0192 µg/mL (≈ 0.0319 µM)
EC90 [2, 9]: 0.0669 µg/mL (≈ 0.111 µM)
SMILES: CC(=O)c1nn(CC(=O)N2[C@H](C(=O)Nc3nc(Br)ccc3C)C[C@@]3(C)C[C@@H]23)c2ccc(-c3cnc(C)nc3)cc12 [Compound 1, (1R,3S,5R)-2-(2-(3-acetyl-5-(2-methylpyrimidin-5-yl)-1H-indazol-1-yl)acetyl)-N-(6-bromo-3-methylpyridin-2-yl)-5-methyl-2-azabicyclo[3.1.0]hexane-3-carboxamide]
% AUEC0-12 ([2]; 120 mg BID): 98.6%
DURATION0-12 ([2]; 120 mg BID): 11.6 h
% AUEC0-12 ([2]; 200 mg BID): 99.3%
DURATION0-12 ([2]; 200 mg BID): 11.9 h
inhibition at 120 mg ([2]; Homo sapiens, 120 mg BID and 200 mg BID, read-out: calculated percent inhibition across 0 h and 12 h time points): > 90%
